From US7875638B2, “Synthesis of epothilones, intermediates thereto, analogues and uses thereof” (Sloan-Kettering Institute for Cancer Research, priority 2002, dated 2011)
Values after ≈ are worked out from the molar mass of the structure shown. “Also recorded” adds a separate entry of the source. Read-outs that look alike come from different tables or passages of the source. Marks after values point to notes of the source that are not given here.

Assays:
[1] = test system: Ovarian cancer lines; experiment: XTT cell growth inhibition, ovarian cancer lines (mean); assay type: cell-based; details: Homo sapiens, read-out: Mean IC50, ovarian lines
[2] = test system: H929; experiment: XTT cell growth inhibition, H929; assay type: cell-based; details: Homo sapiens, NCI-H929; Myeloma; XTT tetrazonium assay; read-out: IC50 (nM), H929
[3] = test system: MOLP-5; experiment: XTT cell growth inhibition, MOLP-5; assay type: cell-based; details: Homo sapiens; Myeloma; XTT tetrazonium assay; read-out: IC50 (nM), MOLP-5
[4] = test system: CCRF-CEM
Procedure: Cytotoxicity Assays. In preparation for in vitro cytotoxicity assays, cells were cultured at an initial density 2-5×10^4 cells per milliliter. […] For both methods, the absorbance of each well was measured with a microplate reader (Power Wave XS, Bio-Tek, Winooski, Vt.).
A typical experiment involves culturing cells (e.g., CCRF-CEM) at an initial density of 2-5×10^4 cells per ml. […] For cells that were grown in suspension (such as CCRF-CEM and its sublines), cytotoxicitiy is measured by using the 2,-3-bis(2-methoxy-4-nitro-5-sulfophenyl)-5 carboxanilide)-2H terazodium hydroxide (XTT)-microculture tetrazonium method in duplicate in 96-well microtiter plates. For both methods, the absorbance of each well is measured with a microplate reader (EL-340, Bio-Tek, Burlington, Vt.). Each run entails six or seven concentrations of the tested drugs. Dose-effect relationship data are analyzed with the median-effect plot.
Cytotoxicity Assays: In preparation for in vitro cytotoxicity assays, cells were cultured at an initial density 2-5×10^4 cells per milliliter. […] For both methods, the absorbance of each well was measured with a microplate reader (Power Wave XS, Bio-Tek, Winooski, Vt.).

[5] = test system: human lung carcinoma xenograft (A549); experiment: A549 xenograft in nude mice
[6] = test system: SKOV3; experiment: XTT cell growth inhibition, SKOV3; assay type: cell-based; details: Homo sapiens, SK-OV-3; Ovarian Ca; XTT tetrazonium assay; read-out: IC50 (nM), SKOV3
[7] = test system: CAG myeloma cell lines; experiment: Cell cycle analysis (propidium iodide DNA staining), CAG; assay type: cell-based, human; details: 31.25 nM
Source text: CAG myeloma cell lines were used.

[8] = test system: HS-27A; experiment: XTT cell growth inhibition, HS-27A; assay type: cell-based; details: Homo sapiens, Marrow stroma, XTT tetrazonium assay, read-out: IC50 (nM), HS-27A
[9] = test system: CAG; experiment: XTT cell growth inhibition, CAG; assay type: cell-based; details: Homo sapiens; Myeloma; XTT tetrazonium assay; read-out: IC50 (nM), CAG
[10] = test system: myeloma cell lines (RPMI8226, CAG); experiment: XTT cell proliferation, myeloma cell lines; assay type: cell-based, human
[11] = test system: human mammary carcinoma MX-1 xenograft; experiment: MX-1 xenograft in nude mice; details: for Body weight on the 16th day after treatment, % of the pretreatment control: Q2Dx6
[12] = test system: primary CD138 MM cells; experiment: Apoptosis of primary myeloma cells; assay type: cell-based, human; details: cells obtained from patient marrow
[13] = Solubility in water; details: water
[14] = test system: Human CD34+ stem cells; experiment: Apoptosis and 2 weeks progenitor assays on CD34+ stem cells; assay type: cell-based; details: 24 hours incubation, umbilical cord blood CD34+
Procedure: Then drugs were washed out and annexin V staining was performed. Solid area represents vehicle control and open area represents drug treated group. There is no obvious increased apoptosis of non-cycling human CD34+ cells with short period of exposure to epothilones.
Drug cytotoxicity to hematopoietic stem cells is always a major concern. Human CD34+ stem cells were isolated from umbilical cord blood and incubated with either dEpoB or Fludelone alone for 24 hours. After washing out the drugs, apoptosis assays and 2 weeks progenitor assays were performed to evaluate the influence of epothilone to stem cells.

[15] = test system: SKI-DLBCL; experiment: XTT cell growth inhibition, SKI-DLBCL; assay type: cell-based; details: Homo sapiens; Lymphoma; XTT tetrazonium assay
[16] = test system: MRC-5; experiment: XTT cell growth inhibition, MRC-5; assay type: cell-based, human; details: MRC5; Embryonic lung fibroblasts (human); XTT tetrazonium assay; read-out: IC50 (nM), MRC-5
[17] = test system: RPMI8226 myeloma cell line; experiment: Annexin V staining, RPMI8226; assay type: cell-based, human; details: 24 hours treatment
Source text: (§1) In early apoptotic cells, the membrance phospholipids phosphatidylserine (PS) is translocated from the inner to the outer leaflet of the plasma membrane, thereby exposing PS to the external cellular environment. Annexin V is a 35-36 kD Ca^+2 dependent phospholipid-binding protein that has a high affinity for PS, and binds to cells with exposed PS. In conjunction with a vital dye such as 7-amino-actinomycin (7-AAD) staining dead cells, this assay allows the identification of early apoptotic cells.

[18] = test system: CAG myeloma cell lines; experiment: Annexin V staining, CAG; assay type: cell-based, human; details: 24 hours treatment
Source text: as §1, with “membrane” for “membrance”, “Ca^2+” for “Ca^+2”, “phospholipids-binding” for “phospholipid-binding”, “to identify” for “the identification of”, “cells. […] Note that X-axis is Annexin staining and Y-axis is 7-AAD staining.” for “cells.”

[19] = test system: human mammary carcinoma MX-1 xenograft; details: mouse, in vivo
[20] = test system: Ovcar-4; experiment: XTT cell growth inhibition, Ovcar-4; assay type: cell-based; details: Homo sapiens, OVCAR-4; Ovarian Ca; XTT tetrazonium assay; read-out: IC50 (nM), Ovcar-4
[21] = test system: HCT-116; experiment: XTT cell growth inhibition, HCT-116; assay type: cell-based; details: Homo sapiens, HCT-116; Colon Ca; XTT tetrazonium assay; read-out: IC50 (nM), HCT-116
[22] = test system: CAG myeloma cells; experiment: Disseminated CAG xenograft myeloma mice; details: 20 mg/kg
Procedure: 10×10^6 CAG myeloma cells engineered with Luc-eGFP-TK fusion gene were injected intravenously into the mouse-tail vein, and the treatment was started when decent myeloma cells implantation was detected by bioluminescence imaging on day 7.

[23] = test system: RPMI8226 myeloma cells; experiment: Pulse exposure, washout and cell count; assay type: cell-based, human
[24] = test system: OPM-2; experiment: XTT cell growth inhibition, OPM-2; assay type: cell-based; details: Homo sapiens, OPM-2; Myeloma; XTT tetrazonium assay; read-out: IC50 (nM), OPM-2
[25] = test system: RPMI8226 myeloma cell lines; experiment: Cell cycle analysis (propidium iodide DNA staining), RPMI8226; assay type: cell-based, human; details: 31.25 nM
Source text: RPMI8226 myeloma cell lines were used.

[26] = in vitro; details: human, s9
[27] = test system: MDA MB435; experiment: XTT cell growth inhibition, MDA MB435; assay type: cell-based; details: Homo sapiens, MDA-MB-435; Breast Ca; XTT tetrazonium assay; read-out: IC50 (nM), MDA MB435
[28] = test system: RL; experiment: XTT cell growth inhibition, RL; assay type: cell-based; details: Homo sapiens, Lymphoma, XTT tetrazonium assay, read-out: IC50 (nM), RL

## C/C(=C\c1csc(C)n1)[C@@H]1C/C=C(/C(F)(F)F)C/C=C/[C@H](C)[C@H](O)[C@@H](C)C(=O)C(C)(C)[C@@H](O)CC(=O)O1 [Compound 29, 26-trifluoro-trans-9,10-dehydro-12,13-desoxyepothilone B]
[1]
  IC50: 1.6 nM
[2]
  IC50: 9.2 ± 1.9 nM
[3]
  IC50: 14.4 ± 2.6 nM
[4]
  Attenuation of cytotoxicity by the three fluorine atoms at C26, factor: ≤ 4
[4]; human
  IC50: 0.0032 ± 0.0003 µM
[4]; in the cell
  Cytotoxicity relative to the benchmark compound dEpoB: ~1.8 fold
[4]; read-out: IC50 (μM), CCRF-CEM, XTT assay following 72 h inhibition, Table 1-2
  IC50: 0.0035 µM
[4]; read-out: IC50, CCRF-CEM(C), XTT assay following 72 h inhibition, Table 1-3
  IC50: 0.0035 µM
[5]; 25 mg/kg, Q2DX6, twice
  Body weight decrease without lethality: ≤ 35%
[5]; 29: after two more doses, dEpoB: 30 mg/kg, Q2Dx6
  Tumor eradication: 4 of the 4
[6]
  IC50: 1.6 ± 0.5 nM
[7]
  Cell cycle arrest: absolutely blocked cell cycle at G2M phase
[8]
  IC50: 102 ± 8 nM
[9]
  IC50: 12 ± 1.8 nM
[10]
  Potency relative to dEpoB on MM cell lines: ~5 fold
[10]; Homo sapiens, RPMI-8226, read-out: IC50, myeloma cell lines (RPMI8226, CAG)
  IC50: 7.6 to 36.7 nM
[11]; 10 mg/kg, Q2DX12
  Body weight gain during the last three doses: 6%
  Maximal body weight decrease: 12%
[11]; 20 mg/kg
  Tumor free after Q2Dx6 6 hr-iv. infusion (mice): four out of four
  Body weight on the 16th day after treatment, % of the pretreatment control: 109%
[11]; 20 mg/kg and 30 mg/kg, Q2Dx6, 6 hour infusions
  Therapeutic outcome in MX-1 xenograft model: curative
[11]; 20 mg/kg or 30 mg/kg Q2Dx6, i.v.-6 hr infusion
  Time for body weight to return to pretreatment control level after suspension of treatment: 12 to 18 days
[11]; 20 mg/kg, Q2Dx6, 6 hour infusion
  Reappearance of the tumor on the 20th day after stopping treatment: no reappearance
[11]; 20 mg/kg, Q2Dx6, 6 hr iv infusion
  Tumor reappearance on 27th day after stopping treatment (mice): 2 out of 4
[11]; 20 mg/kg, Q2Dx6, 6 hr iv infusion, listed as 26-trifluoro-9,10-dehydro-12,13-dexoxy-epothilone B
  Tumor reappearance on 27th day after stopping treatment (mice): 2/4
[11]; 20 mg/kg, Q2Dx6, 6 hr. iv infusion
  Transient drop in body weight: up to 26%
[11]; 30 mg/kg
  Decrease in body weight without lethality: 27%
  Body weight on the 16th day after treatment, % of the pretreatment control: 98%
[11]; 30 mg/kg, Q2Dx6, 6 hour iv infusion
  Tumor disappearance earlier than the 20 mg/kg dosage: 2 to 3 days
[11]; 30 mg/kg, Q2Dx6, 6 hr iv infusion
  Relapse after suspension of treatment: absence of any relapse for over two months
[11]; Q2Dx6, 6 hour infusions
  Maximal tolerated dose: ~30 mg/kg
[11]; assuming a tumor doubling time of 4 days
  Cell kill: > 8.5 log
[11]; extra large MX-1, 25 mg/kg Q3Dx5 then Q3Dx4
  Tumor relapse after cessation of treatment: No relapse was observed on D180
[11]; female nude mice, large MX-1, 30 mg/kg orally
  Relapse (49 days after stopping treatment): no relapse on D115
[11]; female nude mice, large MX-1, 30 mg/kg orally Q2Dx7 then Q2Dx9
  Tumor disappearance: All three mice's tumor disappeared on D40, 45 and 48
[11]; mouse, in vivo
  Doses required for MX-1 tumor disappearance: nine
  Duration of MX-1 tumor disappearance: 64 days
  Mice relapsed on day 10 after suspension of treatment: 0/4
  Mouse tumors disappeared, large MX-1 tumors (0.5 g): 4/4
  Relapse after suspension of treatment: no relapse after 62 days
  Tumor disappeared during the resting period (mice): 2 out of 5
  Tumor free after Q2Dx6 6 hr-iv. infusion (mice): 4/4
  Tumor reappeared on day 10 after administration (mice): 0/4^[b]
  Tumor relapse after cessation of treatment: no tumor relapse in all 5 animals on D165
  Tumor shrinkage during the resting period of 9 days (D34-D43): > 99.3%
[11]; mouse, in vivo, iv, 25 mg/kg
  Tumor shrinkage: > 97.4%
[11]; mouse, in vivo, po, 30 mg/kg
  Tumor disappearance (mice): 2 out of 4
  Tumor disappearance after additional two doses (mice): 4 out of 4
[11]; mouse, in vivo, listed as 26-trifluoro-9,10-trans-dehdyro-epothilone D
  Tumor free following the cessation of treatment: 3.8 months
[11]; mouse, in vivo, listed as Fludelone
  Tumor free following the cessation of treatment: 4.3 months
[12]
  Tumor apoptosis within 24 hrs: induced tumor apoptosis within 24 hrs
[13]
  solubility: 20 µg/mL (≈ 36.8 µM)
[14]
  Toxicity on non-cycling stem cells: no significant toxicity
[15]
  IC50: 60 ± 4.2 nM
[16]
  IC50: 7.4 ± 2.7 nM
[17]
  Apoptosis (Annexin V / 7-AAD): majority of cell either enter apoptosis or are dead
[18]
  Apoptosis (Annexin V / 7-AAD): majority of cells either enter apoptosis or are dead
[19]
  Maximal body weight decrease: Only minor loss of body weight
[19]; po, 30 mg/kg
  Maximal drop of the body weight: 15%
[20]
  IC50: 1.8 ± 0.7 nM
[21]
  IC50: 3.6 ± 1.3 nM
[22]
  Survival after transplanting CAG cells (Kaplan-Meier): > 80 days
[22]; intraperitoneal
  Survival versus controls: at least doubled the survival time than controls
[22]; listed as Fludelone
  Tumor burden by bioluminescence imaging: significant decreased tumor photon emissions; also recorded: significantly decreased tumor burden
[23]
  Decrease of the number of cells from input: ~50%
  Decrease of tumor cell numbers: 50%
[23]; 24 hrs exposure
  Cell death after pulse exposure: all cells being dead by 48 hrs
[24]
  IC50: 8.2 ± 2.2 nM
[25]
  Cell cycle arrest: absolutely blocked cell cycle at G2M phase
[26]
  half-life: 10.5 ± 2.3 h
[27]
  IC50: 5.8 ± 2.8 nM
[28]
  IC50: 80 ± 11 nM
